The values below come from ChEMBL document CHEMBL1131458, “Design and synthesis of malonic acid-based inhibitors of human neutrophil collagenase (MMP8)” (J Med Chem, 1998).

Chain of Neutrophil collagenase (P22894 whole entry): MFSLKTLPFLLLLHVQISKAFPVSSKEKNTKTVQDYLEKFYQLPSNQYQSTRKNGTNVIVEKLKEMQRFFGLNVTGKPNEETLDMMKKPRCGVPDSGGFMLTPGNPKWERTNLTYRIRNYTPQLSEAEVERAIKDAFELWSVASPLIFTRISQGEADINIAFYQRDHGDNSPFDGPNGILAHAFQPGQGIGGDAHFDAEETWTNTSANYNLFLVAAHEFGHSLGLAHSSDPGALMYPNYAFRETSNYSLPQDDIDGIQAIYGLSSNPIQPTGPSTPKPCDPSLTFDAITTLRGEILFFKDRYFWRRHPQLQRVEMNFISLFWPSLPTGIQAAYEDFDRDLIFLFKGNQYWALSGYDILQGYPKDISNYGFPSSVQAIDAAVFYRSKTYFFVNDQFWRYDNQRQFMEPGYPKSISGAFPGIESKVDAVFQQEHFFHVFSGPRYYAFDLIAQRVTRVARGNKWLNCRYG

This experiment concerns the target Neutrophil collagenase (Homo sapiens, UniProt P22894). In words: Inhibition of Matrix metalloprotease-8 (Human neutrophil collagenase, MMP-8).
As a reminder, the Ki is a dissociation constant, usually derived from enzyme kinetics or from competition with a known ligand. High values mean a looser hold on the target, low ones a stronger hold on the target. The compound `CCCCCCCCNC(=O)C(CC(C)C)C(=O)NO` (stereo not given) displayed an inhibition constant (Ki) of 0.24 µM.
The compound `CC(C)CC(C(=O)NO)C(=O)NC(CC(N)=O)C(=O)NCc1ccccc1` (stereo not given) showed a Ki of 55 µM.
`CC(C)CC(C(=O)NO)C(=O)NC(CC(N)=O)C(=O)NCc1cccc(N)c1` (stereo not given) yielded an inhibitory constant (Ki) of 26 µM.
With `O=C(NO)C(Cc1ccccc1)C(=O)N1CCOCC1` (stereo not given), affinity was put at a Ki of 50 µM.
In the case of `CC(C)CC(C(=O)NO)C(=O)NC(CO)C(=O)NCc1ccccc1` (stereo not given), the Ki turned out to be 35 µM.
With `CC(C)CC(C(=O)NO)C(=O)N[C@H](C)C(=O)NCc1ccccc1` (stereo not given in full) the figure was 194 µM.
In the case of `O=C(NO)C(Cc1ccccc1)C(=O)NCCCc1ccccc1` (stereo not given), the Ki is 0.56 µM.
With `CC(C)C[C@H](C(=O)NO)C(=O)N[C@@H](C)C(=O)NCC(N)=O` the figure was 121 µM; with `Cc1ccc(CCNC(=O)[C@H](CCc2ccccc2)NC(=O)C(CC(C)C)C(=O)NO)cc1` (stereo not given in full), 1.4 µM; with `CC(C)CC(C(=O)NO)C(=O)N[C@@H](CCc1ccccc1)C(=O)NCCc1ccc(O)cc1` (stereo not given in full), 12 µM.
In turn, `CCOC(=O)C(C(=O)NO)c1ccccc1` (stereo not given) came in with an inhibitory constant (Ki) of 98 µM.
With `O=C(NO)C(CCc1ccccc1)C(=O)NCCCc1ccccc1` (stereo not given), the affinity, expressed as Ki, was 0.49 µM.
In turn, `CC(C)CC(C(=O)NO)C(=O)NCCCc1ccccc1` (stereo not given) displayed a Ki of 0.54 µM.
As to `O=C(NO)C(Cc1ccccc1)C(=O)NCc1ccccc1` (stereo not given), the affinity corresponds to a Ki of 3.1 µM.
In the case of `Cc1ccc(CCNC(=O)[C@H](CCc2ccccc2)NC(=O)C(CCc2ccccc2)C(=O)NO)cc1` (stereo not given in full), the affinity, expressed as Ki, was 4 µM.
Regarding `CC(C)CC(C(=O)NO)C(=O)NC(Cc1ccccc1)C(=O)NCc1ccccc1` (stereo not given), the affinity corresponds to a Ki of 25 µM.
Under `CCOC(=O)C(Cc1ccccc1)C(=O)NO` (stereo not given) stands 53 µM.
As for `O=C(NO)C(O)C(=O)NCCCc1ccccc1` (stereo not given), affinity was put at a Ki of 2.3 µM.
`CC(C)CC(C(=O)NO)C(=O)NC(CC(=O)O)C(=O)NCc1ccccc1` (stereo in doubt; 12b) showed a Ki of 88 µM.
For the compound `CC(C)CC(C(=O)NO)C(=O)Nc1ccccc1C(=O)NCc1ccccc1` (stereo not given), the Ki was 36 µM.
On to `O=C(NO)C(CCc1ccccc1)C(=O)NCc1ccccc1` (stereo not given), for which the affinity, expressed as Ki, was 2.3 µM.
`Cc1ccc(CCNC(=O)[C@H](CCc2ccccc2)NC(=O)C(O)C(=O)NO)cc1` (stereo not given in full) gave an inhibitory constant (Ki) of 1.6 µM.
For the compound `CCOC(=O)C(CC(C)C)C(=O)NO` (stereo not given), the Ki came out at 190 µM.
With `CC(C)CC(C(=O)NO)C(=O)NC(C)C(=O)NCc1ccccc1` (stereo not given) the figure was 50 µM.
As for `COC(=O)c1ccc(CCNC(=O)[C@H](CCc2ccccc2)NC(=O)C(CC(C)C)C(=O)NO)cc1` (stereo not given in full), the Ki was 9.6 µM.
Under `Cc1ccc(CCNC(=O)[C@H](CCc2ccccc2)NC(=O)C(Cc2ccccc2)C(=O)NO)cc1` (stereo not given in full) stands 1.7 µM; under `CCOC(=O)C(CCc1ccccc1)C(=O)NO` (stereo not given), 189 µM; under `CC(C)CC(C(=O)NO)C(=O)N1CCCC1C(=O)NCc1ccccc1` (stereo not given), 168 µM.
Consider `CC(C)CC(C(=O)NO)C(=O)N[C@@H](CCc1ccccc1)C(=O)NCCc1ccc(C(=O)O)cc1` (stereo not given in full), for which the Ki was 20 µM.
Under `CC(C)CC(C(=O)NO)C(=O)NC(CC(=O)O)C(=O)NCc1ccccc1` (stereo in doubt; 12) stands 136 µM.
